Literature values in PMC7504348 (Molecules, 2020).

Test system: AChE
Details: dataset for 2D-QSAR model, Ellman's method, galantamine as reference; cited from earlier work

SMILES	pIC50 (AChE dataset, Table S4)
Cc1nccc2c1[nH]c1ccccc12 [CHEMBL12014]	4.23
CC1=NCCc2c1[nH]c1cc(O)ccc21 [CHEMBL129177]	4.47
c1ccc(CNc2ccccc2)cc1 [CHEMBL237223]	4.59
CCOC(=O)c1c(C)nc2nc3c(c(N)c2c1-c1ccccc1)CCCC3 [CHEMBL253386]	5.49
COc1ccc2c(c1)[nH]c1c(C)nccc12 [CHEMBL269538]	4.19
COc1ccc2c3c([nH]c2c1)C(C)=NCC3 [CHEMBL340807]	4.80
CN(C)CCc1c[nH]c2ccc(O)cc12 [CHEMBL416526]	4.94
OC[C@H]1O[C@@H](Oc2ccc(/C=N/O)cc2)[C@H](O)[C@@H](O)[C@@H]1O [CHEMBL457684]	4.78
CO/N=C\c1ccc(O[C@@H]2O[C@H](COC(C)=O)[C@@H](OC(C)=O)[C@H](OC(C)=O)[C@H]2OC(C)=O)cc1 [CHEMBL463856]	4.33
O=C(O[C@H]1[C@H](Oc2ccc(/C=N/O)cc2)OC[C@@H](OC(=O)c2ccccc2)[C@H]1OC(=O)c1ccccc1)c1ccccc1 [CHEMBL500712]	4.40
COc1cc2ccnc3c2c(c1OC)-c1ccccc1C3=O [CHEMBL510090]	4.72
CC(=O)OC[C@H]1O[C@@H](Oc2ccc(/C=N/NC(N)=S)cc2)[C@H](OC(C)=O)[C@@H](OC(C)=O)[C@@H]1OC(C)=O [CHEMBL517342]	4.19
CCN(CC)Cc1ccc(OCCCCCCCCCCN2CCCCC2)cc1 [CHEMBL1085869]	5.67
COc1cccc2c1C(=O)c1c(C)cc(=O)[nH]c1C2=O [CHEMBL1269160]	4.57
COc1cc2c(cc1O)C=[N+](C)CC2.O=C([O-])C(F)(F)F [CHEMBL1270150]	4.73
COc1cc2c(cc1O)C[N@+]1(C)CCc3cc(OC)c(OC)cc3[C@@H]1C2 [CHEMBL1270255]	5.01
COc1ccc2c(ccc[n+]2C)c1.[I-] [CHEMBL2018160]	4.63
CCc1ccc(N(Cc2ccc(C)cc2)C(=O)/C=C/C(=O)N(Cc2ccc(C)cc2)c2ccc(CC)cc2)cc1 [CHEMBL2296112]	4.25
CCc1ccc(N(Cc2ccccc2)C(=O)/C=C/C(=O)N(Cc2ccccc2)c2ccc(CC)cc2)cc1 [CHEMBL2296113]	4.21
CCOc1ccc(N(Cc2ccccc2)C(=O)/C=C/C(=O)N(Cc2ccccc2)c2ccc(OCC)cc2)cc1 [CHEMBL2296117]	4.18
Cc1ccc(CN(C(=O)/C=C/C(=O)N(Cc2ccc(C)cc2)c2ccc(F)cc2)c2ccc(F)cc2)cc1 [CHEMBL2296124]	4.33
Cc1ccc(CN(C(=O)/C=C/C(=O)N(Cc2ccc(C)cc2)c2ccc(I)cc2)c2ccc(I)cc2)cc1 [CHEMBL2296125]	4.46
CC(C)[C@H](NC(=O)OCC(Cl)(Cl)Cl)C(=O)N[C@H](C)c1nc2ccc(F)cc2s1 [CHEMBL2334725]	4.70
CC(C)[C@H](NC(=O)OCC(F)(F)F)C(=O)N[C@H](C)c1nc2ccc(F)cc2s1 [CHEMBL2334726]	4.49
CC(C)[C@H](NC(=O)OCC(F)(F)C(F)F)C(=O)N[C@H](C)c1nc2ccc(F)cc2s1 [CHEMBL2334727]	4.72
CC(C)[C@H](NC(=O)OCC(F)(F)C(F)(F)C(F)(F)F)C(=O)N[C@H](C)c1nc2ccc(F)cc2s1 [CHEMBL2334728]	4.24
CCC[C@H](NC(=O)OCC)C(=O)N[C@H](C)c1nc2ccc(F)cc2s1 [CHEMBL2334730]	4.64

SMILES	pIC50 (AChE dataset, Table S4)
CCC[C@H](NC(=O)OC(C)C)C(=O)N[C@H](C)c1nc2ccc(F)cc2s1 [CHEMBL2334732]	4.86
CCC[C@H](NC(=O)OCC(Cl)(Cl)Cl)C(=O)N[C@H](C)c1nc2ccc(F)cc2s1 [CHEMBL2334736]	4.72
CCC[C@H](NC(=O)OCC(F)(F)F)C(=O)N[C@H](C)c1nc2ccc(F)cc2s1 [CHEMBL2334737]	4.71
CCC[C@H](NC(=O)OCC(F)(F)C(F)F)C(=O)N[C@H](C)c1nc2ccc(F)cc2s1 [CHEMBL2334738]	4.69
CCC[C@H](NC(=O)OCC(F)(F)C(F)(F)C(F)(F)F)C(=O)N[C@H](C)c1nc2ccc(F)cc2s1 [CHEMBL2334739]	4.52
CC(C)COC(=O)N[C@H](C(=O)N[C@H](C)c1nc2ccc(F)cc2s1)C(C)C [CHEMBL2334745]	4.49
CC(C)[C@H](NC(=O)OCCBr)C(=O)N[C@H](C)c1nc2ccc(F)cc2s1 [CHEMBL2334747]	4.51
COc1cc(CCC(=O)C2=C(CCc3ccc(O)c(OC)c3)NC(=O)NC2c2ccc(O)cc2)ccc1O (centres unmarked) [CHEMBL2381433]	4.58
COc1ccc(C2NC(=O)NC(CCc3ccc(O)c(OC)c3)=C2C(=O)CCc2ccc(O)c(OC)c2)cc1 (centres unmarked) [CHEMBL2381434]	4.67
COc1ccccc1/C=C1\CNCC2=C1NC(=O)NC2c1ccccc1OC (centres unmarked) [CHEMBL2385766]	4.35
O=C1NC2=C(CNC/C2=C\c2ccc(Br)cc2)C(c2ccc(Br)cc2)N1 (centres unmarked) [CHEMBL2385768]	4.75
O=C1NC2=C(CNC/C2=C\c2ccc(F)cc2)C(c2ccc(F)cc2)N1 (centres unmarked) [CHEMBL2385771]	4.30
O=C1NC2=C(CNC/C2=C\c2ccc(Cl)cc2Cl)C(c2ccc(Cl)cc2Cl)N1 (centres unmarked) [CHEMBL2385772]	4.48
O=C1NC2=C(CNC/C2=C\c2cccc3ccccc23)C(c2cccc3ccccc23)N1 (centres unmarked) [CHEMBL2385773]	4.83
Fc1ccccc1/C=C1\CNCC2=C1NC(=S)NC2c1ccccc1F (centres unmarked) [CHEMBL2385777]	4.34
O=[N+]([O-])c1cccc(/C=C2\CNCC3=C2NC(=S)NC3c2cccc([N+](=O)[O-])c2)c1 (centres unmarked) [CHEMBL2385779]	4.42
S=C1NC2=C(CNC/C2=C\c2ccc(Br)cc2)C(c2ccc(Br)cc2)N1 (centres unmarked) [CHEMBL2385780]	4.88
S=C1NC2=C(CNC/C2=C\c2ccc(Cl)cc2Cl)C(c2ccc(Cl)cc2Cl)N1 (centres unmarked) [CHEMBL2385784]	4.53
COC(=O)[C@@H]1CCCN1CCCCCOc1ccc2c(=O)cc(-c3ccccc3)oc2c1C [CHEMBL2393074]	4.75
NCCc1c(C(c2c[nH]c3ccccc23)C(O)CO)[nH]c2ccc(O)cc12 (centres unmarked) [CHEMBL3125443]	4.90
CCN(CC)Cc1cccc2oc3cc(OC)ccc3c12 [CHEMBL3127043]	4.98
COc1ccc2c(c1)[nH]c1cccc(CNC(C)C)c12 [CHEMBL3127216]	4.84
CCN(CC)Cc1cccc2[nH]c3cc(OC)ccc3c12 [CHEMBL3127217]	4.99
CC(C)NCc1cccc2[nH]c3cc(O)ccc3c12 [CHEMBL3127219]	4.92
COc1cc(/C=C/c2ccc(OCCCCCCN(C)Cc3ccccc3)cc2)cc(OC)c1 [CHEMBL3132866]	4.98
CCCN(CCC)CCCCCCOc1ccc(/C=C/c2cc(OC)cc(OC)c2)cc1 [CHEMBL3133243]	4.97
